Tests used:
[1] = system: human ovarian cancer cells (HeyA8-F8); conditions: 200 μg/mL luciferin at T=0; VPD 0.4V
Experimental: Ovarian Cancer Cells. For culturing the ovarian cancer cells (HeyA8-F8), the CMOS chip surface is sterilized by 70% ethanol and then washed three times with sterile Phosphate Buffered Saline (PBS). To increase cell adhesion to the chip surface, 0.1% gelatin is added onto the chip for 30 minutes before being aspirated. […] Ovarian cancer cells are then seeded directly onto the CMOS chip and allowed to attach before adding 1 mL of cell culture media.
The human ovarian cancer cells (HeyA8-F8) can constitutively express firefly luciferase. […] The bioluminescence information can be used to verify the viability of the HeyA8-F8 cancer cells and can be further extended to other bioluminescence cell-based assays.
Since the intensity of the bioluminescence light is generally weak, the background noise, such as the photodiode dark current, should be suppressed and calibrated. […] Moreover, dark current in each sensing pixel is recorded before the measurement and then subtracted after the bioluminescence recoding.
The CMOS sensor chip starts data recording after a 130-second setup time. During the optical detection, the photodiode reset pulse width is 1 second and the repetition rate is 0.05 Hz. Thus, each photo current integration window is 19 seconds, and the optical detection data is refreshed every 20 seconds. […]

[2] = system: human ovarian cancer cells (HeyA8-F8); conditions: general statement; depends on number of cells and luciferin concentration; cited from earlier work
human cardiomyocytes [3] = assay: Joint-modality cardiac drug screening: extracellular voltage recording of cardiomyocyte beating on CMOS sensor chip; assay type: cell-based; conditions: 10 nM isoproterenol in culture medium
Experimental: (§1) Human Cardiomyocytes. Human ESCs are first cultured in a monolayer until confluence. Next, cardiomyocytes are directly differentiated through the use of small molecules Gsk3 inhibitor and Wnt inhibitor for 14 days. Finally, the CMOS chip is sterilized using 70% ethanol and coated with a Matrigel matrix as a protein mixture layer to enhance cell culture and attachment. Cardiomyocytes are then seeded onto the CMOS chips as either single cells or aggregated cardiospheres.
(§2) On-chip cultured human cardiomyocytes was used in this experiment. Their autonomous beating is captured by the extracellular voltage recording, and the beating rate is used to characterize the potency of the cardiac drugs. Isoproterenol, a small molecule cardiac drug, is used in this example. Isoproterenol has its known drug effect of activating the β1-receptors on the cardiac cells and increasing the cardiac cells beating rate. It has been widely used to treat bradycardia and heart block.
(§3) First, the on-chip cardiomyocytes beating spikes were recorded as the extracellular voltage recording in a normal culture medium. The baseline cellular impedance mapping was also measured. Next, 10 nM isoproterenol was directed to the cell culture medium using pipettes, and the cardiomyocytes are real-time monitored with joint-modality measurements. […]

human cardiomyocytes [4] = assay: Joint-modality cardiac drug screening: real-time cellular impedance sensing (cell attachment); assay type: cell-based; conditions: 10 nM isoproterenol; FIG. 20
Experimental: as §1, §2, §3

| SMILES | time at which bioluminescence emission fully decays [1] | time of bioluminescence emission peak after administration [1] | time of luminescence emission peak after administration (in general) [2] | increase of recorded number of cell beating spikes in the 90-second counting window (human cardiomyocytes [3]) | real-time cardiomyocytes impedance change (cell attachment) (human cardiomyocytes [4]) |
| --- | --- | --- | --- | --- | --- |
| O=C(O)[C@H]1CSC(c2nc3ccc(O)cc3s2)=N1 [luciferin] | 800 s | around 300 seconds | about 5 minutes | – | – |
| CC(C)NCC(O)c1ccc(O)c(O)c1 (centres unmarked) [isoproterenol, Isoproterenol] | – | – | – | 150% | small decrease |

Source: patent US10126289B2, “Multimodality CMOS sensor array for physiological characterization of cells” (Georgia Tech Research Corporation, priority 2015, dated 2018)
